From ChEMBL document CHEMBL1201862, “PubChem BioAssay data set” (2004) come the findings set out here.

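Five concentrations, 48 hours, 96-well plates. The concentration for 50% growth inhibition is given as GI50.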 Activity calls are given as the source filed them. No stated cut-off is given here; in the data, active = GI50 up to about 1.1 µM and inactive = higher. Some results are limits rather than exact numbers.

Some test systems named below: SW-620; RPMI-8226; UO-31; MOLT-4; A549; SK-MEL-5; COLO 205; EKVX; 786-0; SK-MEL-28; KM12; PC-3; OVCAR-3; SN12C; NCI-H522; SK-MEL-2; HOP-92; OVCAR-4; NCI-H460.
Common to all, as to assay: NCI-60 cell line screen, 48 h

Take `CNC(=O)N1CN(c2ccccc2)C2(CCN(CCCC(=O)c3ccc(F)cc3)CC2)C1=O`: the GI50 is 27.3 µM (inactive) in the test on SW-620; 14.1 µM (inactive) with RPMI-8226; 7.08 µM (inactive) in the test on UO-31; 4.57 µM (inactive) with MOLT-4; 45.1 µM (inactive) in the test with A549; 11.8 µM (inactive) in the test with SK-MEL-5. Further, the GI50 in the test on COLO 205 was 4.56 µM (inactive); with EKVX it was 12.8 µM (inactive); with 786-0 it was 26.1 µM (inactive); in the test on SK-MEL-28, 17.2 µM (inactive); in the test with KM12, 20.9 µM (inactive); in the test with PC-3, 31.2 µM (inactive). For the same compound, the GI50 with OVCAR-3 is 18.4 µM (inactive); with SN12C, 21.4 µM (inactive); with NCI-H522 it was 24.9 µM (inactive).

`O=C(C1=CCC2(CC1)OCCO2)N(Cc1ccccc1)c1ccccc1I`: the GI50 with SK-MEL-2 is 21.2 µM (inactive); with HOP-92, 16.1 µM (inactive); in the test with SW-620 it was 29.7 µM (inactive); in the test on RPMI-8226, 24.4 µM (inactive); in the test on UO-31 it was 17.6 µM (inactive); in the test with MOLT-4 it was 63.8 µM (inactive). Also, the GI50 is 28 µM (inactive) in the test with A549; 14.9 µM (inactive) with OVCAR-4; 13.9 µM (inactive) with SK-MEL-5; 17.7 µM (inactive) in the test on COLO 205; 16.4 µM (inactive) in the test on EKVX; 18.8 µM (inactive) in the test on 786-0. In addition, the GI50 in the test with SK-MEL-28 is 21.2 µM (inactive); in the test on KM12, 14.1 µM (inactive); with PC-3, 26.3 µM (inactive); with OVCAR-3, 21.3 µM (inactive); with NCI-H460 it was 18.9 µM (inactive); with SN12C it was 24 µM (inactive).

In the case of `c1ccc2c(CNCCCCCCNCc3cccc4ccccc34)cccc2c1`, the GI50 in the test on SK-MEL-2 was 1.65 µM (inactive); in the test with HOP-92, 6.14 µM (inactive); with SW-620, 4.06 µM (inactive); in the test with RPMI-8226 it was 2.27 µM (inactive); with UO-31, 11.3 µM (inactive); in the test on MOLT-4 it was 3.04 µM (inactive). The GI50 was 17.8 µM (inactive) in the test with A549; 14.7 µM (inactive) with OVCAR-4; 7.24 µM (inactive) with SK-MEL-5; 1.66 µM (inactive) in the test on COLO 205; 13.2 µM (inactive) in the test on EKVX; 13 µM (inactive) with 786-0. Besides, the GI50 was 1.85 µM (inactive) with SK-MEL-28; 3.66 µM (inactive) in the test on KM12; 16.4 µM (inactive) in the test with OVCAR-3; 1.81 µM (inactive) with NCI-H460; 12.4 µM (inactive) in the test on SN12C; 2.32 µM (inactive) in the test with NCI-H522.

`CCOc1ccc(NC(=O)C(=O)NO)cc1`: the GI50 in the test on SK-MEL-2, with HOP-92, with SW-620, with RPMI-8226, with UO-31 and with MOLT-4 was > 100 µM (inactive) each time. For the same compound, the GI50 in the test with A549, with OVCAR-4, in the test on SK-MEL-5, in the test on COLO 205, in the test on EKVX and with 786-0 was > 100 µM (inactive) throughout. The GI50 in the test on SK-MEL-28, in the test with KM12, in the test with OVCAR-3, in the test with NCI-H460, with SN12C and in the test on NCI-H522 was > 100 µM (inactive) throughout.

For `CC(=O)OC1CCCn2c1nc1c2C(=O)C(C)=C(N2CC2)C1=O` (stereo not given), the GI50 in the test on SK-MEL-2 was 0.277 µM (active); with HOP-92, 27.8 µM (inactive); in the test on SW-620, 0.167 µM (active); in the test on RPMI-8226 it was 1.07 µM (active); in the test with UO-31, 0.605 µM (active); with MOLT-4, 19.4 µM (inactive). Further, the GI50 with A549 was 0.316 µM (active); with OVCAR-4, 0.773 µM (active); in the test on SK-MEL-5, 0.185 µM (active); in the test on COLO 205, 0.535 µM (active); in the test on EKVX it was 0.721 µM (active); in the test on 786-0, 0.222 µM (active). In addition, the GI50 in the test with SK-MEL-28 is 0.522 µM (active); with KM12 it was 0.403 µM (active); in the test on OVCAR-3 it was 0.329 µM (active); with NCI-H460 it was 0.0798 µM (active); with SN12C, 0.308 µM (active); with NCI-H522, 0.156 µM (active).

Regarding `N#Cc1cccc(N2C(=O)c3c(c(-c4ccccc4)c(-c4ccc(Sc5ccc(-c6c(-c7ccccc7)c7c(c(-c8ccccc8)c6-c6ccccc6)C(=O)N(c6cccc(C#N)c6)C7=O)cc5)cc4)c(-c4ccccc4)c3-c3ccccc3)C2=O)c1`, the GI50 with SK-MEL-2 is > 100 µM (inactive); in the test with HOP-92, 3.92 µM (inactive); in the test on SW-620, > 100 µM (inactive); in the test with RPMI-8226 it was > 100 µM (inactive); in the test with UO-31 it was 91.8 µM (inactive); in the test with MOLT-4 it was 49.2 µM (inactive). Moreover, the GI50 was > 100 µM (inactive) in the test on A549; > 100 µM (inactive) in the test with OVCAR-4; 77.6 µM (inactive) with SK-MEL-5; > 100 µM (inactive) in the test on COLO 205; 35.8 µM (inactive) in the test with EKVX; > 100 µM (inactive) in the test with 786-0. The GI50 in the test on SK-MEL-28 is > 100 µM (inactive); with KM12 it was > 100 µM (inactive); with OVCAR-3, > 100 µM (inactive); in the test with NCI-H460, > 100 µM (inactive); in the test with SN12C, 23.9 µM (inactive); in the test on NCI-H522 it was > 100 µM (inactive).

For `CN1CCC(CN2c3ccccc3Sc3ccccc32)CC1`, the GI50 in the test with SK-MEL-2 was 17.1 µM (inactive); with HOP-92, 5.69 µM (inactive); in the test on SW-620, 15.3 µM (inactive); with RPMI-8226, 12.7 µM (inactive); in the test with UO-31, 10.1 µM (inactive); in the test on MOLT-4, 15.5 µM (inactive). The GI50 is 15.1 µM (inactive) with A549; 16.3 µM (inactive) in the test on OVCAR-4; 7.19 µM (inactive) in the test with SK-MEL-5; 14.1 µM (inactive) in the test on COLO 205; 14.4 µM (inactive) in the test with EKVX; 14.3 µM (inactive) with 786-0. Moreover, the GI50 in the test on SK-MEL-28 is 11 µM (inactive); in the test with KM12 it was 16 µM (inactive); with OVCAR-3, 15.3 µM (inactive); in the test with NCI-H460, 14.7 µM (inactive); in the test on SN12C, 19.1 µM (inactive); in the test with NCI-H522 it was 14.9 µM (inactive).

Turning to `COC(=O)C1Cc2c([nH]c3ccccc23)-c2[nH]c3ccccc3c2CC(NC(C)=O)C(=O)N2CCCC2C(=O)N1` (stereo not given), the GI50 in the test on SK-MEL-2 is > 100 µM (inactive); in the test with SW-620, > 100 µM (inactive); in the test with RPMI-8226, 56.8 µM (inactive); in the test with UO-31 it was > 100 µM (inactive); in the test with MOLT-4 it was 66.7 µM (inactive); in the test with A549 it was > 100 µM (inactive). The GI50 in the test on OVCAR-4 is > 100 µM (inactive); in the test with SK-MEL-5, > 100 µM (inactive); with COLO 205 it was 53.1 µM (inactive); in the test on EKVX it was > 100 µM (inactive); in the test on 786-0, > 100 µM (inactive); with SK-MEL-28 it was > 100 µM (inactive). The GI50 in the test with PC-3 is > 100 µM (inactive); with OVCAR-3, > 100 µM (inactive); with NCI-H460 it was > 100 µM (inactive); with SN12C it was > 100 µM (inactive); in the test on NCI-H522, 36.1 µM (inactive).
